In paper PMC9203275, “Lysosome lipid signalling from the periphery to neurons regulates longevity” (Nature Cell Biology, 2022):

Tests used:
[1] = molecular target: T1, LBP-2 (Caenorhabditis elegans, UniProt Q20224); assay: mass spectrometry of fatty acids bound after incubation with C. elegans lipid extract; assay type: binding; settings: competition within C. elegans lipid extract
T1 sequence (Q20224 19-161): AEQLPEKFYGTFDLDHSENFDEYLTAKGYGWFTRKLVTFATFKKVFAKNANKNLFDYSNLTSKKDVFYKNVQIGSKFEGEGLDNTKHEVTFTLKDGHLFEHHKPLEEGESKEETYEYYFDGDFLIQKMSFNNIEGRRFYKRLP

[2] = molecular target: T2, LBP-3 (Caenorhabditis elegans, UniProt Q20222); assay: competitive fluorescence displacement of […],8-ANS; assay type: binding; settings: one-site Fit Ki; competition with 1,8-ANS probe
T2 sequence (Q20222 16-165): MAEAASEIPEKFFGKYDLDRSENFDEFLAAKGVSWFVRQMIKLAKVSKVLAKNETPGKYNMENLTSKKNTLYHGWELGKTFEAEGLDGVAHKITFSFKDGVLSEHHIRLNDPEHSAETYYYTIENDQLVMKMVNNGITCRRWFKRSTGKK

% occupancy among bound PUFAs [1] [%]	Kd [2] [µM]	SMILES
1	11	CCCCC/C=C\C/C=C\C/C=C\CCCCCCC(=O)O [DGLA, dihomo-γ-linolenic acid]
6	4.76	CC/C=C\C/C=C\C/C=C\C/C=C\C/C=C\CCCC(=O)O [EPA, eicosapentaenoic acid]
